One assay relates to HSV-1. Kind of assay: HSV-1 complete replication cycle assay, supernatants used to infect fresh BHK cells. It counts as cell-based, herpes simplex virus 1. Here is the method:
To not only analyze the virus entry and early phase of virus replication of infection but also later phases of viral replication, the test assay was adjusted accordingly. BHK cells were incubated with test compounds and subsequently infected with HSV-1. Two days after infection supernatants were collected, centrifuged to remove detached cells and used to infect BHK cells. After two additional days infected cells were quantified using the Ensight system.
Two days after infection supernatants were collected, centrifuged to remove detached cells and used to infect BHK cells. After two additional days infected cells were quantified using the PerkinElmer Ensight system. The mean of infected cells from six independent wells was calculated. Error bars show the standard deviation.
(§1) However, Aciclovir, the standard therapy for HSV-1, targets viral DNA replication before the late phase of virus replication cycle. […] Two days after infection supernatants were collected, centrifuged to remove detached cells and used to infect BHK cells. After two addition days infected cells were quantified.
as §1

Assay [1] relates to GFP-encoding wildtype HSV-1 virus. As to the kind of experiment: HSV-1 infection assay, GFP-expressing infected cells counted directly. It counts as cell-based, herpes simplex virus 1. The conditions noted are these: single anthocyanins, BHK cells. Here is the method: BHK cells were incubated with decreasing concentration of the solubilized test compounds for approx. 1 h. All concentrations were analyzed by six independent replicates on a black 96 well plate (PerkinElmer). Cells were infected with GFP-encoding wildtype HSV-1 virus and incubated for two days. Two days after infection, HSV-1-infected cells and GFP expressing cells were directly counted using the PerkinElmer Ensight system with optical cell culture plates. The instrument was controlled by manual counting.
The cells were subsequently infected with GFP-encoding HSV at a multiplicity of infection of 2.5, and infected GFP-expressing cells were counted one day after infection using the PerkinElmer Ensight system. […] Thus, the sugar is not required as potential co-factor for drug uptake.

Regarding `Nc1nc2c(ncn2COCCO)c(=O)[nH]1` [Aciclovir, 9-(2-hydroxyethoxymethyl)guanine], the “reduction of infected cells” value in the assay with HSV-1 (0.5 μg/ml Aciclovir alone) is “two”. Besides, the “reduction of viral infectivity” value in the assay on HSV-1 (2 μg/ml Aciclovir alone) was “two”.

On to `OC[C@H]1O[C@@H](Oc2cc3c(O)cc(O)cc3[o+]c2-c2ccc(O)c(O)c2)[C@H](O)[C@@H](O)[C@@H]1O` [C3G, Cyanidin 3-glucoside], for which the “inhibition of HSV-1 (viral infectivity)” value in assay [1] is given as “Neither C3G nor D3Gal or Pet3G inhibited HSV-1”. Consider `OC[C@H]1O[C@@H](Oc2cc3c(O)cc(O)cc3[o+]c2-c2cc(O)c(O)c(O)c2)[C@H](O)[C@@H](O)[C@H]1O` [D3Gal, Delphinidin 3-galactoside], for which the “inhibition of HSV-1 (viral infectivity)” value in assay [1] was “Neither C3G nor D3Gal or Pet3G inhibited HSV-1”.

Take `COc1cc(-c2[o+]c3cc(O)cc(O)c3cc2O[C@@H]2O[C@H](CO)[C@@H](O)[C@H](O)[C@H]2O)cc(O)c1O` [Pet3G, Petunidin 3-glucoside]: the “inhibition of HSV-1 (viral infectivity)” value in assay [1] is recorded as “Neither C3G nor D3Gal or Pet3G inhibited HSV-1”.

The values above are taken from patent publication US20220175720A1, “COMBINED P[…] ANTHOCYANIN COMPOSITION AND AN ANTIVIRAL AGENT” (priority 2019, published 2022).
